The values that follow are results of earlier work, collected in paper PMC6504684 (Frontiers in Pharmacology, 2019).

This data set has as its system α9α10 nAChRs, mutation α9-Asp121Leu. The following applies: cited from earlier work.

As to `CC(=O)OCC[N+](C)(C)C` [ACh, acetylcholine], the “increase of EC50” value was roughly 30 times.
